The text below walks through data of the supplement of paper PMC11208160.

The nature of the data set: recombinant UMI read abundance after kanamycin selection (control-corrected) (log10(CPM+1)); higher = more efficient recombination; extreme values may be limits of the assay; sequences stand for … in AGTGCAGAGAAAATCGGCCAGTTTTCTCTGCCTGCAGTCCGCATGCCGTGGGACCCCTTGGGTTCTAACCTGTTGCCTAGATTTATGCAGCGGACTGCCTTTCTCCCAAAGTGATAAACCGG…AGGTTGGTTTCACT; site = the 11-nt donor. A digest of the protocol: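 The measure is log10(CPM+1) for recombinant UMIs. These were PCR-amplified across the donor–target junction and sequenced after Escherichia coli carrying a donor and donor-binding-loop pair library and a target plasmid with T7-inducible IS621 bridge recombinase was plated on IPTG (0.07 mM) plus kanamycin or unselected. CPM were averaged over two replicates and scaled by control-derived factors.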
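Further: IS621 bridge recombinase in Escherichia coli cells against a fixed T5 target plasmid.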

In the case of “AGCCTAGCATGGACCGGTTTTCCCGGTAATCCGTATTTGTT (site AGCCTAGCTAG)”, the “recombinant UMI read abundance (log10)” value worked out at 0.

As for “AGCCTAGCATGGACCGGTTTTCCCGGTAATCCGTATTTGTT (site AGCCTAGCTAT)”, the “recombinant UMI read abundance (log10)” value was 0.0124.

For the sequence “AGCCTAGCATGGACCGGTTTTCCCGGTAATCCGTATTTGTT (site AGCCTAGCTCA)”, the “recombinant UMI read abundance (log10)” value turned out to be 0.0329.

In the case of “AGCCTAGCATGGACCGGTTTTCCCGGTAATCCGTATTTGTT (site AGCCTAGCTGA)”, the “recombinant UMI read abundance (log10)” value stood at 0.

In the case of “AGCCTAGCATGGACCGGTTTTCCCGGTAATCCGTATTTGTT (site AGCCTAGCTTA)”, the “recombinant UMI read abundance (log10)” value turned out to be 0.00455.

For the sequence “AGCCTAGCATGGACCGGTTTTCCCGGTAATCCGTATTTGTT (site AGCCTATCTAA)”, the “recombinant UMI read abundance (log10)” value stood at 0.00805.

For “AGCCTAGCATGGACCGGTTTTCCCGGTAATCCGTATTTGTT (site AGCCTCGCTAA)”, the “recombinant UMI read abundance (log10)” value turned out to be 0.0288.

As to “AGCCTAGCATGGACCGGTTTTCCCGGTAATCCGTATTTGTT (site AGCCTGGCTAA)”, the “recombinant UMI read abundance (log10)” value is 0.0296.

As for “AGCCTAGCATGGACCGGTTTTCCCGGTAATCCGTATTTGTT (site AGCCTTGCTAA)”, the “recombinant UMI read abundance (log10)” value stood at 0.0186.

Regarding “AGCCTAGCATGGACCGGTTTTCCCGGTAATCCGTATTTGTT (site AGCGTAGCTAA)”, the “recombinant UMI read abundance (log10)” value is 0.00795.

For the sequence “AGCCTAGCATGGACCGGTTTTCCCGGTAATCCGTATTTGTT (site AGCTTAGCTAA)”, the “recombinant UMI read abundance (log10)” value amounted to 0.0228.

In the case of “AGCCTAGCATGGACCGGTTTTCCCGGTAATCCGTATTTGTT (site AGGCTAGCTAA)”, the “recombinant UMI read abundance (log10)” value came to 0.00253.

As for “AGCCTAGCATGGACCGGTTTTCCCGGTAATCCGTATTTGTT (site AGTCTAGCTAA)”, the “recombinant UMI read abundance (log10)” value amounted to 0.0113.

For “AGCCTAGCATGGACCGGTTTTCCCGGTAATCCGTATTTGTT (site ATCCTAGCTAA)”, the “recombinant UMI read abundance (log10)” value was found to be 0.0142.

“AGCCTAGCATGGACCGGTTTTCCCGGTAATCCGTATTTGTT (site CGCCTAGCTAA)”: the “recombinant UMI read abundance (log10)” value is 0.00222.

In the case of “AGCCTAGCATGGACCGGTTTTCCCGGTAATCCGTATTTGTT (site GGCCTAGCTAA)”, the “recombinant UMI read abundance (log10)” value came to 0.0159.

Regarding “AGCCTAGCATGGACCGGTTTTCCCGGTAATCCGTATTTGTT (site TGCCTAGCTAA)”, the “recombinant UMI read abundance (log10)” value was determined as 0.00782.

With “AGCCTGGCATGGACCGGTTTTCCCGGTAATCCGTATTTGAC (site AGCCTGGCTGT)”, the “recombinant UMI read abundance (log10)” value was 0.

In the case of “AGCCTTTCATGGACCGGTTTTCCCGGTAATCCGTATTTGAA (site AGCCTTTCTAT)”, the “recombinant UMI read abundance (log10)” value was 0.

With “AGCCTTTCATGGACCGGTTTTCCCGGTAATCCGTATTTGAA (site AGCCTTTCTCT)”, the “recombinant UMI read abundance (log10)” value is 0.00501.

For “AGCCTTTCATGGACCGGTTTTCCCGGTAATCCGTATTTGAA (site AGCCTTTCTGT)”, the “recombinant UMI read abundance (log10)” value amounted to 0.

“AGCCTTTCATGGACCGGTTTTCCCGGTAATCCGTATTTGAA (site AGCCTTTCTTT)”: the “recombinant UMI read abundance (log10)” value was found to be 0.

For “AGCCTTTCATGGACCGGTTTTCCCGGTAATCCGTATTTGAC (site AACCTTTCTGT)”, the “recombinant UMI read abundance (log10)” value was found to be 0.

For “AGCCTTTCATGGACCGGTTTTCCCGGTAATCCGTATTTGAC (site ACCCTTTCTGT)”, the “recombinant UMI read abundance (log10)” value was found to be 0.

Take “AGCCTTTCATGGACCGGTTTTCCCGGTAATCCGTATTTGAC (site AGACTTTCTGT)”: the “recombinant UMI read abundance (log10)” value stood at 0.

Consider “AGCCTTTCATGGACCGGTTTTCCCGGTAATCCGTATTTGAC (site AGCATTTCTGT)”, for which the “recombinant UMI read abundance (log10)” value amounted to 0.00674.

With “AGCCTTTCATGGACCGGTTTTCCCGGTAATCCGTATTTGAC (site AGCCATTCTGT)”, the “recombinant UMI read abundance (log10)” value is 0.

“AGCCTTTCATGGACCGGTTTTCCCGGTAATCCGTATTTGAC (site AGCCCTTCTGT)”: the “recombinant UMI read abundance (log10)” value was 0.

Consider “AGCCTTTCATGGACCGGTTTTCCCGGTAATCCGTATTTGAC (site AGCCGTTCTGT)”, for which the “recombinant UMI read abundance (log10)” value is 0.

In the case of “AGCCTTTCATGGACCGGTTTTCCCGGTAATCCGTATTTGAC (site AGCCTATCTGT)”, the “recombinant UMI read abundance (log10)” value came to 1.73.

“AGCCTTTCATGGACCGGTTTTCCCGGTAATCCGTATTTGAC (site AGCCTCTCTGT)”: the “recombinant UMI read abundance (log10)” value amounted to 0.

On to “AGCCTTTCATGGACCGGTTTTCCCGGTAATCCGTATTTGAC (site AGCCTGTCTGT)”, for which the “recombinant UMI read abundance (log10)” value came to 0.

As for “AGCCTTTCATGGACCGGTTTTCCCGGTAATCCGTATTTGAC (site AGCCTTACTGT)”, the “recombinant UMI read abundance (log10)” value was found to be 0.

In the case of “AGCCTTTCATGGACCGGTTTTCCCGGTAATCCGTATTTGAC (site AGCCTTCCTGT)”, the “recombinant UMI read abundance (log10)” value stood at 0.
